#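 These data come from cells grown in 96-well plates and exposed to compound for 48 hours at five concentrations. TGI is the concentration that stops growth completely.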
# Columns and labels:
# Assay in all cases: growth of human tumour cells (NCI), 48 h
# [1] = tested on: SK-OV-3 ovarian
# [2] = tested on: EKVX NSCLC
# [3] = tested on: SF-268 CNS
# [4] = tested on: A498 renal
# [5] = tested on: SK-MEL-5 melanoma
# [6] = tested on: NCI-H522 lung
# [7] = tested on: MDA-MB-435
# [8] = tested on: MOLT-4 leukemia
# [9] = tested on: MDA-N
# [10] = tested on: HL-60(TB) leukemia
# [11] = tested on: CAKI-1 renal
# [12] = tested on: LOX IMVI melanoma
# [13] = tested on: A549 NSCLC
# [14] = tested on: KM12 colon
# [15] = tested on: SNB-75 CNS
# [16] = tested on: RPMI-8226 leukemia
# [17] = tested on: HOP-92 NSCLC
# [18] = tested on: HOP-62 NSCLC
# [19] = tested on: HCT-15 colon
# [20] = tested on: MALME-3M melanoma
# [21] = tested on: OVCAR-5 ovarian
# [22] = tested on: SK-MEL-2 melanoma
# [23] = tested on: UACC-257 melanoma
# [24] = tested on: RXF 393 renal
# [25] = tested on: COLO 205 colon
# [26] = tested on: NCI-H226 lung
# [27] = tested on: SNB-19 CNS
# [28] = tested on: PC-3 prostate
# [29] = tested on: UO-31 renal
# [30] = tested on: NCI-H460 lung
# [31] = tested on: HCC-2998 colon
# [32] = tested on: HS 578T breast
# [33] = tested on: U251 CNS
# [34] = tested on: HT29 colon
# [35] = tested on: SN12C renal
# [36] = tested on: DU-145 prostate
# [37] = tested on: K-562 leukemia
# [38] = tested on: NCI/ADR-RES ovarian
# [39] = tested on: HCT-116 colon
# [40] = tested on: UACC-62 melanoma
# [41] = tested on: MCF7 breast
# [42] = tested on: T-47D breast
# [43] = tested on: ACHN renal
# [44] = tested on: OVCAR-8 ovarian
# [45] = tested on: CCRF-CEM leukemia
# [46] = tested on: SF-295 CNS
# [47] = tested on: IGROV1 ovarian
# [48] = tested on: M14 melanoma
# [49] = tested on: SR leukemia
# [50] = tested on: MDA-MB-231 breast
# [51] = tested on: 786-0 renal
# [52] = tested on: SW-620 colon
# [53] = tested on: SK-MEL-28 melanoma
# [54] = tested on: NCI-H23 lung
# [55] = tested on: TK-10 renal
# [56] = tested on: OVCAR-4 ovarian
# [57] = tested on: SF-539 CNS
# [58] = tested on: OVCAR-3 ovarian
smiles,measurement,setting,value
NC(=O)c1nnsc1NC=O,TGI,[1],> 100 µM
same,TGI,[2],> 100 µM
same,TGI,[3],> 100 µM
same,TGI,[4],> 100 µM
same,TGI,[5],> 100 µM
same,TGI,[6],> 100 µM
same,TGI,[7],> 100 µM
same,TGI,[8],> 100 µM
same,TGI,[9],> 100 µM
same,TGI,[10],> 100 µM
same,TGI,[11],> 100 µM
same,TGI,[12],> 100 µM
same,TGI,[13],> 100 µM
same,TGI,[14],> 100 µM
same,TGI,[15],> 100 µM
same,TGI,[16],> 100 µM
same,TGI,[17],> 100 µM
same,TGI,[18],> 100 µM
same,TGI,[19],> 100 µM
same,TGI,[20],> 100 µM
same,TGI,[21],> 100 µM
same,TGI,[22],> 100 µM
same,TGI,[23],> 100 µM
same,TGI,[24],> 100 µM
same,TGI,[25],> 100 µM
same,TGI,[26],> 100 µM
same,TGI,[27],> 100 µM
same,TGI,[28],> 100 µM
same,TGI,[29],> 100 µM
same,TGI,[30],> 100 µM
same,TGI,[31],> 100 µM
same,TGI,[32],> 100 µM
same,TGI,[33],> 100 µM
same,TGI,[34],> 100 µM
same,TGI,[35],> 100 µM
same,TGI,[36],> 100 µM
same,TGI,[37],> 100 µM
same,TGI,[38],> 100 µM
same,TGI,[39],> 100 µM
same,TGI,[40],> 100 µM
same,TGI,[41],> 100 µM
same,TGI,[42],> 100 µM
same,TGI,[43],> 100 µM
same,TGI,[44],> 100 µM
same,TGI,[45],> 100 µM
same,TGI,[46],> 100 µM
same,TGI,[47],> 100 µM
same,TGI,[48],> 100 µM
same,TGI,[49],> 100 µM
same,TGI,[50],> 100 µM
same,TGI,[51],> 100 µM
same,TGI,[52],> 100 µM
same,TGI,[53],> 100 µM
same,TGI,[54],> 100 µM
CCOC(=O)CSc1[nH]c(NC(=S)Nc2ccccc2)c(C(N)=O)c1C(N)=O,TGI,[1],> 10 µM
same,TGI,[2],> 10 µM
same,TGI,[3],> 10 µM
same,TGI,[5],> 10 µM
same,TGI,[7],> 10 µM
same,TGI,[8],> 10 µM
same,TGI,[9],> 10 µM
same,TGI,[10],4.78 µM
same,TGI,[11],> 10 µM
same,TGI,[12],> 10 µM
same,TGI,[13],> 10 µM
same,TGI,[14],> 10 µM
same,TGI,[15],> 10 µM
same,TGI,[16],> 10 µM
same,TGI,[17],> 10 µM
same,TGI,[18],> 10 µM
same,TGI,[19],> 10 µM
same,TGI,[20],> 10 µM
same,TGI,[23],> 10 µM
same,TGI,[24],> 10 µM
same,TGI,[25],> 10 µM
same,TGI,[28],> 10 µM
same,TGI,[31],> 10 µM
same,TGI,[34],> 10 µM
same,TGI,[35],> 10 µM
same,TGI,[36],> 10 µM
same,TGI,[37],> 10 µM
same,TGI,[40],> 10 µM
same,TGI,[41],> 10 µM
same,TGI,[55],> 10 µM
same,TGI,[42],> 10 µM
same,TGI,[44],> 10 µM
same,TGI,[56],> 10 µM
same,TGI,[45],> 10 µM
same,TGI,[46],> 10 µM
same,TGI,[47],> 10 µM
same,TGI,[48],> 10 µM
same,TGI,[49],> 10 µM
same,TGI,[50],> 10 µM
same,TGI,[51],> 10 µM
same,TGI,[52],> 10 µM
same,TGI,[53],> 10 µM
same,TGI,[54],> 10 µM
C[C@]1(O)O[C@@H]2OCC[C@@H]2C2=C1C(=O)c1ccccc1C2=O,TGI,[1],45.6 µM
same,TGI,[2],37.1 µM
same,TGI,[3],26.3 µM
same,TGI,[57],31.7 µM
same,TGI,[4],27.1 µM
same,TGI,[5],24.8 µM
same,TGI,[6],31.6 µM
same,TGI,[7],19.5 µM
same,TGI,[8],> 100 µM
same,TGI,[9],19.1 µM
same,TGI,[10],33.2 µM
same,TGI,[11],34.7 µM
same,TGI,[12],25.2 µM
same,TGI,[13],35.2 µM
same,TGI,[14],29.8 µM
same,TGI,[15],74 µM
same,TGI,[16],20.9 µM
same,TGI,[17],31 µM
same,TGI,[18],26.7 µM
same,TGI,[19],39.1 µM
same,TGI,[20],29.5 µM
same,TGI,[21],32.4 µM
same,TGI,[22],32 µM
same,TGI,[23],31 µM
same,TGI,[58],22.3 µM
same,TGI,[24],27.2 µM
same,TGI,[25],53.9 µM
same,TGI,[27],35.2 µM
same,TGI,[28],54.8 µM
same,TGI,[29],31.8 µM
same,TGI,[30],32.8 µM
same,TGI,[31],40.6 µM
same,TGI,[32],82.4 µM
same,TGI,[33],29.8 µM
same,TGI,[34],> 100 µM
same,TGI,[35],51.1 µM
same,TGI,[36],30.4 µM
same,TGI,[37],59.5 µM
same,TGI,[38],45.8 µM
same,TGI,[40],39.5 µM
same,TGI,[41],23.3 µM
same,TGI,[55],35.5 µM
same,TGI,[42],59.1 µM
same,TGI,[43],31.7 µM
same,TGI,[44],29.4 µM
same,TGI,[56],28.4 µM
same,TGI,[45],51.2 µM
same,TGI,[46],35.8 µM
same,TGI,[47],27.2 µM
same,TGI,[48],24.1 µM
same,TGI,[49],45.5 µM
same,TGI,[50],49.3 µM
same,TGI,[51],28.8 µM
same,TGI,[52],39.8 µM
same,TGI,[53],82.5 µM
same,TGI,[54],31.6 µM
CC(Cc1ccccc1)NC1=NCCO1 (stereo unspecified),TGI,[1],> 100 µM
same,TGI,[2],> 100 µM
same,TGI,[57],30.3 µM
same,TGI,[4],85.5 µM
same,TGI,[5],> 100 µM
same,TGI,[6],> 100 µM
same,TGI,[8],77.9 µM
same,TGI,[9],72.3 µM
same,TGI,[11],> 100 µM
same,TGI,[12],34.9 µM
same,TGI,[13],> 100 µM
same,TGI,[15],> 100 µM
same,TGI,[16],67.3 µM
same,TGI,[17],69.1 µM
same,TGI,[18],> 100 µM
same,TGI,[19],> 100 µM
same,TGI,[21],> 100 µM
same,TGI,[22],> 100 µM
same,TGI,[24],> 100 µM
same,TGI,[25],34.5 µM
same,TGI,[26],> 100 µM
same,TGI,[27],> 100 µM
same,TGI,[28],> 100 µM
same,TGI,[29],50.4 µM
same,TGI,[30],36.6 µM
same,TGI,[31],71 µM
same,TGI,[32],> 100 µM
same,TGI,[33],58 µM
same,TGI,[34],40.3 µM
same,TGI,[35],53.3 µM
same,TGI,[39],32.4 µM
same,TGI,[40],> 100 µM
same,TGI,[41],> 100 µM
same,TGI,[42],> 100 µM
same,TGI,[43],> 100 µM
same,TGI,[44],> 100 µM
same,TGI,[56],> 100 µM
same,TGI,[46],> 100 µM
same,TGI,[47],> 100 µM
same,TGI,[49],63.5 µM
same,TGI,[50],30.1 µM
same,TGI,[52],> 100 µM
same,TGI,[54],51 µM
